Consider 17 compounds from patent US12030904B2 (priority 2020, dated 2024).

One data set is described as follows: MT4 cytotoxicity (CC50). Conditions: human, MT4 cells.
The subject of data set [1] is Recombinant Respiratory Syncytial virus strain A2 containing the firefly luciferase reporter (RSV-Fluc). As to the kind of experiment: microbe, parasite or virus in culture. Conditions: human respiratory syncytial virus, NHBE. The format is cell-based.
Another data set relates to SARS-CoV-2. The experiment in a line: microbe, parasite or virus in culture. The data set is classed as cell-based. The note with it: Severe acute respiratory syndrome coronavirus 2, read-out: SARS EC50.
Where [2] appears, read: 72 h, read-out: RSV-Fluc EC50 (NHBE), NHBE cells, three days, Table 2.

Like-named read-outs stand apart in the source and are kept apart here.

By CC50 is commonly meant the concentration giving 50% cytotoxicity. What is called EC50 is the concentration that produces a half-maximal response. Take `CCCCCCCCCCCCCCCCCCOC[C@@H](COP(=O)(O)OC[C@H]1O[C@@](C#N)(c2ccc3c(N)ncnn23)[C@H](O)[C@@H]1O)OCc1cc(F)cc(C#N)c1` [Example 93, ((2R,3S,4R,5R)-5-(4-aminopyrrolo[2,1-f][1,2,4]triazin-7-yl)-5-cyano-3,4-dihydroxytetrahydrofuran-2-yl)methyl ((S)-2-((3-cyano-5-fluorobenzyl)oxy)-3-(octadecyloxy)propyl) hydrogen phosphate]: the CC50 in the data set “MT4 cytotoxicity (CC50)” (MT4 CC50, Table 4) was determined as 1730 nM. Further, the EC50 in data set [1] (read-out: RSV EC50, Table 4) came out at 79 nM; in the data set on SARS-CoV-2, 450 nM.
Consider `CCCCCCCCCCCCCCCCCCOC[C@H](COP(=O)(O)OC[C@H]1O[C@@](C#N)(c2ccc3c(N)ncnn23)[C@H](O)[C@@H]1O)Oc1cnc(C#N)c(OC)c1` [Example 83, ((2R,3S,4R,5R)-5-(4-aminopyrrolo[2,1-f][1,2,4]triazin-7-yl)-5-cyano-3,4-dihydroxytetrahydrofuran-2-yl)methyl ((R)-2-((6-cyano-5-methoxypyridin-3-yl)oxy)-3-(octadecyloxy)propyl) hydrogen phosphate], for which the CC50 in “MT4 cytotoxicity (CC50)” (MT4 CC50, Table 4) was determined as 164 nM. The EC50 in data set [1] (read-out: RSV EC50, Table 4) came to 5 nM; with SARS-CoV-2, 40 nM.
For `CCCCCCCCCCCCCCCCCCOC[C@H](COP(=O)(O)OC[C@H]1O[C@@](C#N)(c2ccc3c(N)ncnn23)[C@H](O)[C@@H]1O)Oc1ccccc1C#N` [Example 73, ((2R,3S,4R,5R)-5-(4-aminopyrrolo[2,1-f][1,2,4]triazin-7-yl)-5-cyano-3,4-dihydroxytetrahydrofuran-2-yl)methyl ((R)-2-(2-cyanophenoxy)-3-(octadecyloxy)propyl) hydrogen phosphate], half-maximal cytotoxicity in the data set “MT4 cytotoxicity (CC50)” (MT4 CC50, Table 4) (CC50) was put at 1200 nM. The concentration giving a half-maximal response (EC50) in data set [1] (read-out: RSV EC50, Table 4) came out at 107 nM; in the data set on SARS-CoV-2, 150 nM.
Compound `CCCCCCCCCCCCCCCCCCOC[C@H](COP(=O)(O)OC[C@H]1O[C@@](C#N)(c2ccc3c(N)ncnn23)[C@H](O)[C@@H]1O)OC(C)C` [Example 47, ((2R,3S,4R,5R)-5-(4-aminopyrrolo[2,1-f][1,2,4]triazin-7-yl)-5-cyano-3,4-dihydroxytetrahydrofuran-2-yl)methyl ((R)-2-isopropoxy-3-(octadecyloxy)propyl) hydrogen phosphate] yielded a CC50 in “MT4 cytotoxicity (CC50)” (MT4 CC50, Table 2a) of 7870 nM. In addition, the EC50 in data set [1] (setting [2]) is 300 nM; in data set [1] (read-out: RSV EC50, Table 2a), 297 nM; with SARS-CoV-2, 1080 nM.
`CCCCCCCCCCCCCCCCCCOC[C@H](COP(=O)(O)OC[C@H]1O[C@@](C#N)(c2ccc3c(N)ncnn23)[C@H](O)[C@@H]1O)OCc1ccc(Cl)c(C#N)c1` [Example 108, [(2R,3S,4R,5R)-5-(4-aminopyrrolo[2,1-f][1,2,4]triazin-7-yl)-5-cyano-3,4-dihydroxy-tetrahydrofuran-2-yl]methyl [(2R)-2-[(4-chloro-3-cyano-phenyl)methoxy]-3-octadecoxy-propyl] hydrogen phosphate] yielded a CC50 in the data set “MT4 cytotoxicity (CC50)” (MT4 CC50, Table 4) of 713 nM. In addition, the EC50 was 83 nM in data set [1] (read-out: RSV EC50, Table 4) and 220 nM in the data set with SARS-CoV-2.
As for `CCCCCCCCCCCCCCCCOCCCOP(=O)(O)OC[C@H]1O[C@@](C#N)(c2ccc3c(N)ncnn23)[C@H](O)[C@@H]1O` [Example 60, ((2R,3S,4R,5R)-5-(4-Aminopyrrolo[2,1-f][1,2,4]triazin-7-yl)-5-cyano-3,4-dihydroxytetrahydrofuran-2-yl)methyl (3-(hexadecyloxy)propyl) hydrogen phosphate], the 50% cytotoxic concentration (CC50) in “MT4 cytotoxicity (CC50)” (MT4 CC50, Table 2a) was determined as 25800 nM. The concentration for a half-maximal effect (EC50) came to 73 nM in data set [1] (setting [2]); 73 nM in data set [1] (read-out: RSV EC50, Table 2a); 6950 nM with SARS-CoV-2.
Compound `CCCCCCCCCCCCCCCCCOC[C@H](COP(=O)(O)OC[C@H]1O[C@@](C#N)(c2ccc3c(N)ncnn23)[C@H](O)[C@@H]1O)OCc1ccc(OC)cc1` [Example 37, ((2R,3S,4R,5R)-5-(4-aminopyrrolo[2,1-f][1,2,4]triazin-7-yl)-5-cyano-3,4-dihydroxytetrahydrofuran-2-yl)methyl ((R)-3-(heptadecyloxy)-2-((4-methoxybenzyl)oxy)propyl) hydrogen phosphate] had a CC50 in the data set “MT4 cytotoxicity (CC50)” (MT4 CC50, Table 2a) of 1580 nM. The 50% effective concentration (EC50) in data set [1] (read-out: RSV EC50, Table 2a) stood at 39 nM; in the data set with SARS-CoV-2, 371 nM.
The compound `CCCCCCCCCCCCCCCCCCOC[C@H](COP(=O)(O)OC[C@H]1O[C@@](C#N)(c2ccc3c(N)ncnn23)[C@H](O)[C@@H]1O)OCc1ccc(Cl)c(Cl)c1` [Example 48, ((2R,3S,4R,5R)-5-(4-aminopyrrolo[2,1-f][1,2,4]triazin-7-yl)-5-cyano-3,4-dihydroxytetrahydrofuran-2-yl)methyl ((R)-2-((3,4-dichlorobenzyl)oxy)-3-(octadecyloxy)propyl) hydrogen phosphate] gave a 50% cytotoxic concentration (CC50) in the data set “MT4 cytotoxicity (CC50)” (MT4 CC50, Table 2a) of 1610 nM. Moreover, the EC50 turned out to be 78 nM in data set [1] (setting [2]); 78 nM in data set [1] (read-out: RSV EC50, Table 2a); 10000 nM with SARS-CoV-2.
In the data set “MT4 cytotoxicity (CC50)” (MT4 CC50, Table 4), `CCCCCCCCCCCCCCOC[C@H](COP(=O)(O)OC[C@H]1O[C@@](C#N)(c2ccc3c(N)ncnn23)[C@H](O)[C@@H]1O)OCc1cc(F)cc(C#N)c1` [Example 117, [(2R,3S,4R,5R)-5-(4-aminopyrrolo[2,1-f][1,2,4]triazin-7-yl)-5-cyano-3,4-dihydroxy-tetrahydrofuran-2-yl]methyl [(2R)-2-[(3-cyano-5-fluoro-phenyl)methoxy]-3-tetradecoxy-propyl] hydrogen phosphate] showed a CC50 of 473 nM. The concentration giving a half-maximal response (EC50) was found to be 15 nM in data set [1] (read-out: RSV EC50, Table 4) and 200 nM in the data set on SARS-CoV-2.
The matching figures for `CCCCCCCCCCCCCCCCOC[C@H](COP(=O)(O)OC[C@H]1O[C@@](C#N)(c2ccc3c(N)ncnn23)[C@H](O)[C@@H]1O)OCc1ccc(C#N)cc1` [Example 96, ((2R,3S,4R,5R)-5-(4-aminopyrrolo[2,1-f][1,2,4]triazin-7-yl)-5-cyano-3,4-dihydroxytetrahydrofuran-2-yl)methyl ((R)-2-((4-cyanobenzyl)oxy)-3-(hexadecyloxy)propyl) hydrogen phosphate]: 511 nM, 23 nM and 43 nM.
Regarding `CCCCCCCCCCCCCCCCCCOC[C@H](COP(=O)(O)OC[C@H]1O[C@@](C#N)(c2ccc3c(N)ncnn23)[C@H](O)[C@@H]1O)OCc1ccccc1F` [Example 42, ((2R,3S,4R,5R)-5-(4-aminopyrrolo[2,1-f][1,2,4]triazin-7-yl)-5-cyano-3,4-dihydroxytetrahydrofuran-2-yl)methyl ((R)-2-((2-fluorobenzyl)oxy)-3-(octadecyloxy)propyl) hydrogen phosphate], in “MT4 cytotoxicity (CC50)” (MT4 CC50, Table 2a), the CC50 is 2220 nM. The half-maximal effective concentration (EC50) was 35 nM in data set [1] (setting [2]); 36 nM in data set [1] (read-out: RSV EC50, Table 2a); 593 nM with SARS-CoV-2.
Take `CCCCCCCCCCCCCCCCOC[C@H](COP(=O)(O)OC[C@H]1O[C@@](C#N)(c2ccc3c(N)ncnn23)[C@H](O)[C@@H]1O)OCc1cccc(C#N)c1` [Example 95, ((2R,3S,4R,5R)-5-(4-aminopyrrolo[2,1-f][1,2,4]triazin-7-yl)-5-cyano-3,4-dihydroxytetrahydrofuran-2-yl)methyl ((R)-2-((3-cyanobenzyl)oxy)-3-(hexadecyloxy)propyl) hydrogen phosphate]: the CC50 in the data set “MT4 cytotoxicity (CC50)” (MT4 CC50, Table 4) was found to be 252 nM. The concentration for a half-maximal effect (EC50) amounted to 20 nM in data set [1] (read-out: RSV EC50, Table 4) and 37 nM with SARS-CoV-2.
Regarding `CCCCCCCCCCCCCCCCCCOC[C@H](COP(=O)(O)OC[C@H]1O[C@@](C#N)(c2ccc3c(N)ncnn23)[C@H](O)[C@@H]1O)OCc1cccc(F)c1` [Example 45, ((2R,3S,4R,5R)-5-(4-aminopyrrolo[2,1-f][1,2,4]triazin-7-yl)-5-cyano-3,4-dihydroxytetrahydrofuran-2-yl)methyl ((R)-2-((3-fluorobenzyl)oxy)-3-(octadecyloxy)propyl) hydrogen phosphate], the CC50 in “MT4 cytotoxicity (CC50)” (MT4 CC50, Table 2a) is 4420 nM. For the same compound, the EC50 in data set [1] (setting [2]) turned out to be 69 nM; in data set [1] (read-out: RSV EC50, Table 2a) it was 69 nM; in the data set with SARS-CoV-2, 311 nM.
On to `CCCCCCCCCCCCCCCCCCOC[C@H](COP(=O)(O)OC[C@H]1O[C@@](C#N)(c2ccc3c(N)ncnn23)[C@H](O)[C@@H]1O)Oc1cc(F)cc(C#N)c1` [Example 31, ((2R,3S,4R,5R)-5-(4-aminopyrrolo[2,1-f][1,2,4]triazin-7-yl)-5-cyano-3,4-dihydroxytetrahydrofuran-2-yl)methyl ((R)-2-(3-cyano-5-fluorophenoxy)-3-(octadecyloxy)propyl) hydrogen phosphate], for which the CC50 in “MT4 cytotoxicity (CC50)” (MT4 CC50, Table 2a) amounted to 195 nM. Moreover, the EC50 in data set [1] (read-out: RSV EC50, Table 2a) worked out at 21 nM; with SARS-CoV-2, 86 nM.
The compound `CCCCCCCCCCCCCCCOC[C@H](COP(=O)(O)OC[C@H]1O[C@@](C#N)(c2ccc3c(N)ncnn23)[C@H](O)[C@@H]1O)OCc1cc(F)cc(C#N)c1` [Example 118, [(2R,3S,4R,5R)-5-(4-Aminopyrrolo[2,1-f][1,2,4]triazin-7-yl)-5-cyano-3,4-dihydroxy-tetrahydrofuran-2-yl]methyl [(2R)-2-[(3-cyano-5-fluoro-phenyl)methoxy]-3-pentadecoxy-propyl] hydrogen phosphate] had a CC50 in “MT4 cytotoxicity (CC50)” (MT4 CC50, Table 4) of 291 nM. In addition, the EC50 in data set [1] (read-out: RSV EC50, Table 4) turned out to be 37 nM; with SARS-CoV-2, 120 nM.
`CCCCCCCCCCCCCCCCCCOC[C@H](COP(=O)(O)OC[C@H]1O[C@@](C#N)(c2ccc3c(N)ncnn23)[C@H](O)[C@@H]1O)OCc1cccc(C#N)c1` [Example 39, ((2R,3S,4R,5R)-5-(4-aminopyrrolo[2,1-f][1,2,4]triazin-7-yl)-5-cyano-3,4-dihydroxytetrahydrofuran-2-yl)methyl ((R)-2-((3-cyanobenzyl)oxy)-3-(octadecyloxy)propyl) hydrogen phosphate] returned a cytotoxic concentration (CC50) in “MT4 cytotoxicity (CC50)” (MT4 CC50, Table 2a) of 348 nM. Besides, the concentration for a half-maximal effect (EC50) came to 27 nM in data set [1] (setting [2]); 27 nM in data set [1] (read-out: RSV EC50, Table 2a); 284 nM in the data set with SARS-CoV-2.
As for `CCCCCCCCCCCCCCCCCCOC[C@H](COP(=O)(O)OC[C@H]1O[C@@](C#N)(c2ccc3c(N)ncnn23)[C@H](O)[C@@H]1O)Oc1cnc(C#N)cn1` [Example 77, ((2R,3S,4R,5R)-5-(4-aminopyrrolo[2,1-f][1,2,4]triazin-7-yl)-5-cyano-3,4-dihydroxytetrahydrofuran-2-yl)methyl ((R)-2-((5-cyanopyrazin-2-yl)oxy)-3-(octadecyloxy)propyl) hydrogen phosphate], the CC50 in the data set “MT4 cytotoxicity (CC50)” (MT4 CC50, Table 4) was determined as 196 nM. Also, the 50% effective concentration (EC50) stood at 7 nM in data set [1] (read-out: RSV EC50, Table 4) and 31 nM in the data set on SARS-CoV-2.
